Experiments:
Type in all cases: in vivo
midbrain TH = assay: Midbrain TH expression in MPTP Parkinson's disease model mouse (western-blotting); conditions: midbrain total protein, GAPDH internal reference, gavage 21 days after MPTP modeling
Description: (§1) Neurotoxins can be used to establish PD animal models. Currently, 1-methyl-4-phenyl-1,2,3,6-tetrahydropyridine (MPTP) is the sole synthetic toxin which is recognized to induce PD symptoms in human and non-human primates and in mice. Using MPTP subacute modeling method, C57BL/6J male mice were intraperitoneally injected with MPTP 30 mg/kg, once a day for 5 consecutive days. The experiment animals were divided into blank control group, MPTP model group, and compound treatment group. For the […] compound treatment group, the compound was administrated by gavage for 21 consecutive days after the completion of modeling; for the MPTP model group, the normal saline was administrated by gavage for 21 consecutive days after the completion of modeling; and for the blank control group, the normal saline was first intraperitoneally injected for 5 days, and then administrated by gavage for 21 days.
(§2) The main cause of PD lies in the pathological changes in the substantia nigra-striatum projection system of the brain and the progressive degeneration and loss of dopaminergic neurons. Tyrosine hydroxylase (TH) is the first enzyme in the biosynthesis of catecholamine neurotransmitters, as well as the first rate-limiting enzyme in the dopamine synthesis. It plays an important role in the synthesis and metabolism of the neurotransmitter DA. The TH in PD animal models and patients has a wide range of abnormal changes, from the gene expression to the enzyme protein content and enzyme activity. The detection of the TH expression in the midbrain and substantia nigra of PD model mice can be used to evaluate the neuroprotective activity of the compound.
Half of experiment mice in each group were taken to extract the total midbrain protein, and the change in the midbrain TH was determined by western-blotting using GAPDH as the internal reference. The experiment included blank control group, MPTP model group, positive control group (caffeic acid phenethyl ester, CAPE), prototype control group (styryl sulfone compounds 3B, 3C, 3D, and 3G, whose structures are shown as above), and target compound group.

substantia nigra TH = assay: Substantia nigra TH expression in MPTP Parkinson's disease model mouse (immunofluorescence); conditions: percentage of mean intensity of blank control group, gavage 21 days after MPTP modeling
Description: as §1, §2
Half of experiment mice in each group were taken to separate the midbrain after perfusion and fixation. The tissue was trimmed, and the substantia nigra-striatum area was taken to prepare paraffin sections. The TH immunofluorescence staining was performed in the brain sections of mice in each group. […] The experiment included blank control group, MPTP model group, positive control group (caffeic acid phenethyl ester, CAPE), prototype control group (styryl sulfone compounds 3B, 3C, 3D, and 3G, whose structures are shown as above), and target compound group.

substantia nigra pp38 = assay: Substantia nigra pp38 protein expression in MPTP Parkinson's disease model mouse (immunofluorescence); conditions: percentage of mean intensity of blank control group, gavage 21 days after MPTP modeling
Description: as §1
The p38 mitogen-activated protein kinase (p38 MAPK) is expressed in both neurons and glial cells, and is the intersection point of neuron-glial cell network information regulations. The activation of p38 signaling pathway is an important initiator of neuronal degeneration, which continuously induces the apoptosis of dopaminergic neurons in multiple ways. It has become a research hotspot for the treatment of PD. Studies have shown that the protective mechanism of CAPE against the death of primary cultured cerebellar granule neurons induced by glutamate lies in inhibiting the activation of p38 phosphorylation and in turn inhibiting the activation of the caspase 3 apoptotic pathway to prevent neuronal apoptosis. Therefore, the MPTP-induced PD mouse model can be used to investigate the inhibitory effect of the target compounds on the activation of p38 phosphorylation on the overall animal level.
(§3) Half of experiment mice in each group were taken to separate the midbrain after perfusion and fixation. The tissue was trimmed, and the substantia nigra-striatum area was taken to prepare paraffin sections. The double immunofluorescence staining for TH and phosphorylated p38 was performed to observe the coexpression of TH and phosphorylated p38, for the statistics of the change in the phosphorylated p38 protein expression. The experiment included blank control group, MPTP model group, positive control group (caffeic acid phenethyl ester, CAPE), prototype control group (styryl sulfone compounds 3B, 3C, 3D, and 3G, whose structures are shown as above), and target compound group.

midbrain CD11b = assay: Midbrain CD11b protein expression in MPTP Parkinson's disease model mouse (western-blotting); conditions: for Expression (CD11b/GAPDH): midbrain, MPTP Parkinson's disease model mouse, western-blotting
Description: as §1
(§4) Neuron-glial cell network homeostasis disorder is an important factor for the selective and progressive death of substantia nigra dopaminergic neurons in PD. In the neurotoxic effect of MPTP, the excessive activations of microglial cells and astrocytes produce a variety of inflammatory cytokines and reactive oxygen species (ROS). These inflammatory factors and ROS amplify their respective toxicities and mediate malignant feedback loop, causing a cascade inflammation response and aggravating the pathological process of PD. CD11b and GFAP are the marker proteins for activations of microglial cells and astrocytes, respectively. Therefore, the effect of the target compounds on the activations of the microglial cells and astrocytes in the substantia nigra, hippocampus, and midbrain areas of MPTP-induced PD mice can be investigated, to explore the mechanism of the anti-PD effect of the target compounds by inhibiting the neuroinflammation.
[…] The experiment included blank control group, MPTP model group, positive control group (caffeic acid phenethyl ester, CAPE), prototype control group (styryl sulfone compounds 3B, 3C, 3D), and 3G, whose structures are shown as above), and target compound group.

substantia nigra CD11b = assay: Number of substantia nigra microglial cells with CD11b positive expression in MPTP Parkinson's disease model mouse (immunohistochemistry); conditions: for Positive cell number (microglial cells with CD11b positive expression): substantia nigra, MPTP Parkinson's disease model mouse, immunohistochemistry
Description: as §1, §4
as §3, with “nigra” for “nigra-striatum”, “CD11b immunohistochemical” for “double immunofluorescence”, “staining” for “staining for TH and phosphorylated p38”, “performed” for “performed to observe the coexpression of TH and phosphorylated p38,”, “number of microglial cells with CD11b positive” for “phosphorylated p38 protein”

hippocampus CD11b = assay: Number of hippocampus microglial cells with CD11b positive expression in MPTP Parkinson's disease model mouse (immunohistochemistry); conditions: for Positive cell number (microglial cells with CD11b positive expression): hippocampus, MPTP Parkinson's disease model mouse, immunohistochemistry
Description: as §1, §4
as §3, with “hippocampus” for “substantia nigra-striatum”, “CD11b immunohistochemical” for “double immunofluorescence”, “staining” for “staining for TH and phosphorylated p38”, “performed” for “performed to observe the coexpression of TH and phosphorylated p38,”, “number of microglial cells with CD11b positive” for “phosphorylated p38 protein”

hippocampus GFAP = assay: Number of hippocampus astrocytes with GFAP positive expression in MPTP Parkinson's disease model mouse (immunohistochemistry); conditions: for Positive cell number (astrocytes with GFAP positive expression): hippocampus, MPTP Parkinson's disease model mouse, immunohistochemistry
Description: as §1, §4
as §3, with “hippocampus” for “substantia nigra-striatum”, “GFAP immunohistochemical” for “double immunofluorescence”, “staining” for “staining for TH and phosphorylated p38”, “performed” for “performed to observe the coexpression of TH and phosphorylated p38,”, “number of astrocytes with GFAP positive” for “phosphorylated p38 protein”

| SMILES | Expression (TH/GAPDH) (midbrain TH) | Expression (Immunofluorescence intensity %) (substantia nigra TH) [%] | Expression (Immunofluorescence intensity %) (substantia nigra pp38) [%] | midbrain CD11b protein expression compared with the styryl sulfone prototype compounds (midbrain CD11b) | Expression (CD11b/GAPDH) (midbrain CD11b) | number of substantia nigra microglial cells with CD11b positive expression compared with the styryl sulfone prototype compounds (substantia nigra CD11b) | Positive cell number (microglial cells with CD11b positive expression) (substantia nigra CD11b) | number of hippocampus microglial cells with CD11b positive expression compared with the styryl sulfone prototype compounds (hippocampus CD11b) | Positive cell number (microglial cells with CD11b positive expression) (hippocampus CD11b) | number of hippocampus astrocytes with GFAP positive expression compared with the styryl sulfone prototype compounds (hippocampus GFAP) | Positive cell number (astrocytes with GFAP positive expression) (hippocampus GFAP) |
| --- | --- | --- | --- | --- | --- | --- | --- | --- | --- | --- | --- |
| CCN(CC)C(=O)Oc1ccc(/C=C/S(=O)(=O)Cc2ccc(C(F)(F)F)cc2)cc1OC(=O)N(CC)CC [Compound B1-1, (E)-4-{2-[(4-trifluoromethylphenyl)mesyl]ethenyl}-1,2-phenylenebis(diethylcarbamate)] | 0.92 ± 0.02 | 95.86 ± 4.43 | 76.35 ± 21.90 | equivalent or lower | 0.41 ± 0.05 | significantly lower | 32 ± 4 | significantly lower | 9 ± 2 | significantly lower | 64 ± 4 |
| CCN(CC)C(=O)Oc1ccc(/C=C/S(=O)(=O)Cc2ccc(C(C)(C)C)cc2)cc1OC(=O)N(CC)CC [Compound G1-1, (E)-4-{2-[(4-t-butylphenyl)mesyl]ethenyl}-1,2-phenylenebis(diethylcarbamate)] | 0.70 ± 0.03 | 77.13 ± 7.40 | 82.16 ± 8.10 | equivalent or lower | 0.50 ± 0.06 | significantly lower | 36 ± 3 | significantly lower | 6 ± 1 | significantly lower | 66 ± 4 |
| CCN(CC)C(=O)Oc1ccc(/C=C/S(=O)(=O)CCCc2ccccc2)cc1OC(=O)N(CC)CC [Compound C1-1, (E)-4-[2-(3-phenylpropylsulfonyl)ethenyl]-1,2-phenylenebis(diethylcarbamate)] | 1.20 ± 0.06 | 96.58 ± 6.15 | 108.71 ± 12.51 | equivalent or lower | 1.11 ± 0.08 | significantly lower | 27 ± 4 | significantly lower | 7 ± 2 | significantly lower | 78 ± 3 |
| CC(Br)C(Br)COc1cc(/C=C/S(=O)(=O)CCc2ccc(OCC(F)(F)F)cc2)ccc1OC(=O)Nc1ccsc1 (centres unmarked) [Compound K1-3, (E)-2-(2,3-dibromobutoxy)-4-{2-[4-(2,2,2-trifluoroethoxy)phenylethylsulfonyl]ethenyl}phenyl-N-(thien-3-yl)carbamate] | 0.91 ± 0.04 | 87.28 ± 4.11 | 73.08 ± 18.10 |  | 1.01 ± 0.08 |  | 32 ± 4 |  | 16 ± 1 |  | 65 ± 5 |
| CCN(CC)C(=O)Oc1ccc(/C=C/S(=O)(=O)Cc2ccc(Cl)cc2)cc1OC(=O)N(CC)CC [Compound D1-1, (E)-4-{2-[(4-chlorophenyl)mesyl]ethenyl}-1,2-phenylenebis(diethylcarbamate)] | 1.27 ± 0.05 | 99.19 ± 3.67 | 57.50 ± 15.33 | equivalent or lower | 0.33 ± 0.05 | significantly lower | 15 ± 3 | significantly lower | 7 ± 1 | significantly lower | 58 ± 5 |
| Cc1ccc(S(=O)(=O)Oc2ccc(CS(=O)(=O)/C=C/c3ccc(OS(=O)(=O)c4ccc(C)cc4)c(OC(=O)N(C)S(=O)(=O)c4ccc(C)cc4)c3)cc2)cc1 [Compound S6-6, (E)-2-(N-methyl-N-p-tosylcarbamoyloxy)-4-{2-[(4-p-tosyloxyphenyl)mesyl]ethenyl}phenyl p-toluenesulfonate] | 1.07 ± 0.06 | 96.01 ± 7.32 | 105.30 ± 10.08 |  | 0.62 ± 0.04 |  | 19 ± 2 |  | 9 ± 2 |  | 58 ± 2 |
| O=C(/C=C/c1ccc(O)c(O)c1)OCCc1ccccc1 [Positive control group, caffeic acid phenethyl ester, reference compound] | 0.85 ± 0.04 | 79.21 ± 6.59 | 139.72 ± 25.32 |  | 1.28 ± 0.10 |  | 49 ± 7 |  | 24 ± 2 |  | 86 ± 2 |
